Assay results: the supplement of paper PMC10307832

Tests used:
Assay in all cases: relative viability (nuclei count vs DMSO), 5 days (fraction); higher = more cells survive
A-427 = test system: A-427
In short: (§1)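 Cells from lung cancer lines were seeded into 1536-well plates and, one day later, dosed by pin tool. Treatments were either a single drug or a fixed dose of an anchor drug with five library-drug doses (not always all listed) in √10 steps. After 5 days, nuclei were stained in a one-step fixation (final 0.05% Triton X-100, 1% formaldehyde, 1 ug/ml Hoechst) and counted on 4× images, and relative viability is the treated-to-vehicle nuclei ratio, as the median of duplicate plates.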

COR-L 105 = test system: COR-L 105
In short: as §1

EPLC-272H = test system: EPLC-272H
In short: as §1

HCC-366 = test system: HCC-366
In short: as §1

HCC-78 = test system: HCC-78
In short: as §1

HOP-62 = test system: HOP-62
In short: as §1

LC-2-ad = test system: LC-2-ad
In short: as §1

LU99A = test system: LU99A
In short: as §1

LXF-289 = test system: LXF-289
In short: as §1

NCI-H1666 = test system: NCI-H1666
In short: as §1

NCI-H1792 = test system: NCI-H1792
In short: as §1

NCI-H1793 = test system: NCI-H1793
In short: as §1

NCI-H1915 = test system: NCI-H1915
In short: as §1

NCI-H1944 = test system: NCI-H1944
In short: as §1

NCI-H2009 = test system: NCI-H2009
In short: as §1

NCI-H2085 = test system: NCI-H2085
In short: as §1

NCI-H2170 = test system: NCI-H2170
In short: as §1

NCI-H460 = test system: NCI-H460
In short: as §1

SK-LU-1 = test system: SK-LU-1
In short: as §1

UMC-11 = test system: UMC-11
In short: as §1

## COc1nc(C)cnc1NS(=O)(=O)c1cccnc1-c1ccc(-c2nnco2)cc1 [Zibotentan] + CC1(C)CCC(c2ccc(Cl)cc2)=C(CN2CCN(c3ccc(C(=O)NS(=O)(=O)c4ccc(N[C@H](CCN5CCOCC5)CSc5ccccc5)c(S(=O)(=O)C(F)(F)F)c4)cc3)CC2)C1 [Navitoclax] (partner 0.5 µM)
A-427; first compound 0.08 µM
  relative viability: 0.943
A-427; first compound 0.253 µM
  relative viability: 0.978
A-427; first compound 0.8 µM
  relative viability: 0.978
A-427; first compound 2.53 µM
  relative viability: 0.995
COR-L 105; first compound 0.08 µM
  relative viability: 0.696
COR-L 105; first compound 0.253 µM
  relative viability: 0.649
COR-L 105; first compound 0.8 µM
  relative viability: 0.993
COR-L 105; first compound 2.53 µM
  relative viability: 0.84
EPLC-272H; first compound 0.08 µM
  relative viability: 1.09
EPLC-272H; first compound 0.253 µM
  relative viability: 1.1
EPLC-272H; first compound 0.8 µM
  relative viability: 1.16
EPLC-272H; first compound 2.53 µM
  relative viability: 1.4
HCC-366; first compound 0.08 µM
  relative viability: 1.12
HCC-366; first compound 0.253 µM
  relative viability: 1.14
HCC-366; first compound 0.8 µM
  relative viability: 1.15
HCC-366; first compound 2.53 µM
  relative viability: 1.06
HCC-78; first compound 0.08 µM
  relative viability: 0.859
HCC-78; first compound 0.253 µM
  relative viability: 0.687
HCC-78; first compound 0.8 µM
  relative viability: 0.664
HCC-78; first compound 2.53 µM
  relative viability: 0.764
HOP-62; first compound 0.08 µM
  relative viability: 1.06
HOP-62; first compound 0.253 µM
  relative viability: 1.08
HOP-62; first compound 0.8 µM
  relative viability: 0.99
HOP-62; first compound 2.53 µM
  relative viability: 1
LC-2-ad; first compound 0.08 µM
  relative viability: 0.36
LC-2-ad; first compound 0.253 µM
  relative viability: 0.386
LC-2-ad; first compound 0.8 µM
  relative viability: 0.533
LC-2-ad; first compound 2.53 µM
  relative viability: 0.516
LU99A; first compound 0.08 µM
  relative viability: 0.753
LU99A; first compound 0.253 µM
  relative viability: 0.768
LU99A; first compound 0.8 µM
  relative viability: 0.791
LU99A; first compound 2.53 µM
  relative viability: 0.869
LXF-289; first compound 0.08 µM
  relative viability: 0.96
LXF-289; first compound 0.253 µM
  relative viability: 0.945
LXF-289; first compound 0.8 µM
  relative viability: 0.938
LXF-289; first compound 2.53 µM
  relative viability: 0.968
NCI-H1666; first compound 0.08 µM
  relative viability: 0.878
NCI-H1666; first compound 0.253 µM
  relative viability: 0.785
NCI-H1666; first compound 0.8 µM
  relative viability: 0.767
NCI-H1666; first compound 2.53 µM
  relative viability: 1.01
NCI-H1792; first compound 0.08 µM
  relative viability: 0.597
NCI-H1792; first compound 0.253 µM
  relative viability: 0.605
NCI-H1792; first compound 0.8 µM
  relative viability: 0.588
NCI-H1792; first compound 2.53 µM
  relative viability: 0.604
NCI-H1793; first compound 0.08 µM
  relative viability: 0.506
NCI-H1793; first compound 0.253 µM
  relative viability: 0.405
NCI-H1793; first compound 0.8 µM
  relative viability: 0.414
NCI-H1793; first compound 2.53 µM
  relative viability: 0.486
NCI-H1915; first compound 0.08 µM
  relative viability: 0.732
NCI-H1915; first compound 0.253 µM
  relative viability: 0.79
NCI-H1915; first compound 0.8 µM
  relative viability: 0.805
NCI-H1915; first compound 2.53 µM
  relative viability: 0.797
NCI-H1944; first compound 0.08 µM
  relative viability: 1.06
NCI-H1944; first compound 0.253 µM
  relative viability: 1.07
NCI-H1944; first compound 0.8 µM
  relative viability: 0.977
NCI-H1944; first compound 2.53 µM
  relative viability: 1.03
NCI-H2009; first compound 0.08 µM
  relative viability: 1.17
NCI-H2009; first compound 0.253 µM
  relative viability: 1.08
NCI-H2009; first compound 0.8 µM
  relative viability: 1.2
NCI-H2009; first compound 2.53 µM
  relative viability: 1.25
NCI-H2085; first compound 0.08 µM
  relative viability: 1.23
NCI-H2085; first compound 0.253 µM
  relative viability: 1.08
NCI-H2085; first compound 0.8 µM
  relative viability: 1.28
NCI-H2085; first compound 2.53 µM
  relative viability: 1.27
NCI-H2170; first compound 0.08 µM
  relative viability: 0.699
NCI-H2170; first compound 0.253 µM
  relative viability: 0.6
NCI-H2170; first compound 0.8 µM
  relative viability: 0.651
NCI-H2170; first compound 2.53 µM
  relative viability: 0.651
NCI-H460; first compound 0.08 µM
  relative viability: 1.41
NCI-H460; first compound 0.8 µM
  relative viability: 1.14
NCI-H460; first compound 2.53 µM
  relative viability: 1.23
SK-LU-1; first compound 0.08 µM
  relative viability: 0.911
SK-LU-1; first compound 0.253 µM
  relative viability: 0.683
SK-LU-1; first compound 0.8 µM
  relative viability: 1.04
SK-LU-1; first compound 2.53 µM
  relative viability: 0.781
UMC-11; first compound 0.08 µM
  relative viability: 0.303
UMC-11; first compound 0.253 µM
  relative viability: 0.32
UMC-11; first compound 0.8 µM
  relative viability: 0.293
UMC-11; first compound 2.53 µM
  relative viability: 0.302
